Test [1] has as its target Cyclin-dependent kinase 2 (Homo sapiens) (UniProt P24941). Briefly: Inhibition of DNA-tagged CDK2 (unknown origin) expressed in HEK293 cells at 10 uM after 1 hr by real-time fluorescent quantitative PCR analysis. In kind it is cell-based.
For another test, the system named is HEK293. The experiment in a line: Antiproliferative activity against human HEK293 cells after 72 hrs by MTS assay. In kind it is functional. Conditions: HEK293, 72 h. Background: Formazan colour is commonly taken as a measure of viable cells.
The test system of test [2] is HT-29. Briefly: Cell cycle arrest in human HT-29 cells assessed as accumulation at G1 phase at 10 uM after 48 hrs by propidium iodide/RNase staining-based flow cytometric analysis (reference value: 62.1%). It counts as functional.
The target in test [3] is T1, Serine/threonine-protein kinase Chk1 (Homo sapiens, UniProt O14757).
T1 sequence (O14757 whole entry): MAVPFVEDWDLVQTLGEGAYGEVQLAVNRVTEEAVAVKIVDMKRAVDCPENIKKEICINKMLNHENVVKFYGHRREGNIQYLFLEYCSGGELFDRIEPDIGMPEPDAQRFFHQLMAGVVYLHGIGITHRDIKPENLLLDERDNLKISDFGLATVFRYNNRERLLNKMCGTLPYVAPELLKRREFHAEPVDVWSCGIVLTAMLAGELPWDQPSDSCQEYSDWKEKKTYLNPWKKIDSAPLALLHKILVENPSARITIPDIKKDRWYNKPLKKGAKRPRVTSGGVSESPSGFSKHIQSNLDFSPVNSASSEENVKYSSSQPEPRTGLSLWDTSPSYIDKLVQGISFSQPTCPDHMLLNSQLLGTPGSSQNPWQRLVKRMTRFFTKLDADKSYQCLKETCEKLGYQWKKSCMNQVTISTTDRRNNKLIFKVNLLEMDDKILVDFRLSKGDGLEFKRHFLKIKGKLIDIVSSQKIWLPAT
Briefly: Inhibition of CHK1 (unknown origin) using Cdc25 peptide as substrate preincubated for 30 mins followed by substrate addition and measured after 60 mins by ADP-Glo kinase assay. (In ADP-Glo the light output rises with the ADP produced.)

The target of test [4] is Glycogen synthase kinase-3 beta (Homo sapiens) (UniProt P49841). The experiment in a line: Inhibition of DNA-tagged GSK3beta (unknown origin) expressed in HEK293 cells at 10 uM after 1 hr by real-time fluorescent quantitative PCR analysis. It counts as cell-based.
Test [5] concerns the target Epidermal growth factor receptor (Homo sapiens) (UniProt P00533). Briefly: Inhibition of DNA-tagged EGFR (unknown origin) expressed in HEK293 cells at 10 uM after 1 hr by real-time fluorescent quantitative PCR analysis. In kind it is cell-based.
Test [6] addresses T2, Ephrin type-B receptor 4 (Homo sapiens) (UniProt P54760).
T2 sequence (whole entry): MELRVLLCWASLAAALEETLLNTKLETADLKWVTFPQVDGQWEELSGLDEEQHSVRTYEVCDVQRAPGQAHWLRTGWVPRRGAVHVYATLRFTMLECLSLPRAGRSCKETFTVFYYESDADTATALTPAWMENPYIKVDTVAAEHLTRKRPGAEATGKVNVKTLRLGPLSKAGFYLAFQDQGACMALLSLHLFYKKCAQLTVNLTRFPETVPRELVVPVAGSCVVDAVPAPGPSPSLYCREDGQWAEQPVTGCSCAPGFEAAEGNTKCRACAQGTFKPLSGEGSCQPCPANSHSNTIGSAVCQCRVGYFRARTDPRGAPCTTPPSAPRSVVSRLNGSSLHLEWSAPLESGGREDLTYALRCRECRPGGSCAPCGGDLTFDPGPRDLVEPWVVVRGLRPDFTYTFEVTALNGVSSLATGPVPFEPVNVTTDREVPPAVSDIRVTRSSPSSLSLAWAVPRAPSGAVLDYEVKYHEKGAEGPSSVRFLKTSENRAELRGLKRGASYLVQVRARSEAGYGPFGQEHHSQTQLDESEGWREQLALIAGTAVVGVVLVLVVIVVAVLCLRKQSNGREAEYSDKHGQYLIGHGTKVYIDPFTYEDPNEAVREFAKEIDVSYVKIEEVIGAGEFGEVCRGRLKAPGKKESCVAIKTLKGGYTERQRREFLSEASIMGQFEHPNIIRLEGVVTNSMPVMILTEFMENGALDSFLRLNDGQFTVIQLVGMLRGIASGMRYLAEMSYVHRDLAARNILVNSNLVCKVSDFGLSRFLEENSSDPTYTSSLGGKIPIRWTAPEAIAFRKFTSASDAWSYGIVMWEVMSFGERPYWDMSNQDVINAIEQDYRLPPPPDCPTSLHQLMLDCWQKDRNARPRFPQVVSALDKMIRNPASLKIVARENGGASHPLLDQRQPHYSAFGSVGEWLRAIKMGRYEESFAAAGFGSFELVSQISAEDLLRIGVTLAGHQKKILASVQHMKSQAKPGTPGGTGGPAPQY
Briefly: Inhibition of DNA-tagged EPHB4 (unknown origin) expressed in HEK293 cells at 10 uM after 1 hr by real-time fluorescent quantitative PCR analysis. It counts as cell-based.

Test [7] has as its system HT-29. Briefly: Potentiation of gemcitabine-induced cell cycle arrest in human HT-29 cells assessed as accumulation at G2 phase at 10 uM after 48 hrs by propidium iodide/RNase staining-based flow cytometric analysis (reference value: 62.1%). In kind it is functional. A general note: In flow cytometry, cells or beads pass a laser one at a time.
Test [8] addresses MAP kinase-activated protein kinase 2 (Homo sapiens) (UniProt P49137). The experiment in a line: Inhibition of DNA-tagged MAPKAPK2 (unknown origin) expressed in HEK293 cells at 10 uM after 1 hr by real-time fluorescent quantitative PCR analysis. It counts as cell-based.
The target in test [9] is T3, Serine/threonine-protein kinase 3 (Homo sapiens) (UniProt Q13188).
T3 sequence (whole entry): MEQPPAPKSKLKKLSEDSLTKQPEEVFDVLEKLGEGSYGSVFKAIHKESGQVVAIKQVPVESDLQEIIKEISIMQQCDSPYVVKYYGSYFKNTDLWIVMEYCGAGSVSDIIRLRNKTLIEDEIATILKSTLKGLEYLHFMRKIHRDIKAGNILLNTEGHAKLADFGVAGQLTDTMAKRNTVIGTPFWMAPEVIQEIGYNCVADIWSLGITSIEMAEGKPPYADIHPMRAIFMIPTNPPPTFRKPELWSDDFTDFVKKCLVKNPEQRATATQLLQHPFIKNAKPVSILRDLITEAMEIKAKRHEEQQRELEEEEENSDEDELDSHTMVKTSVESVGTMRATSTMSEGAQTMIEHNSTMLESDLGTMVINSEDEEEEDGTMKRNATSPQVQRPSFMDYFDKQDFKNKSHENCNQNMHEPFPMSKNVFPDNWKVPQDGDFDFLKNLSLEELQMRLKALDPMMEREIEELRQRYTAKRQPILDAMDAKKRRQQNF
The experiment in a line: Inhibition of DNA-tagged STK3 (unknown origin) expressed in HEK293 cells at 10 uM after 1 hr by real-time fluorescent quantitative PCR analysis. It counts as cell-based.

The target of test [10] is Tyrosine-protein kinase BTK (Homo sapiens) (UniProt Q06187). Briefly: Inhibition of DNA-tagged BTK (unknown origin) expressed in HEK293 cells at 10 uM after 1 hr by real-time fluorescent quantitative PCR analysis. In kind it is cell-based.
In test [11] the test system is HT-29. The experiment in a line: Potentiation of gemcitabine-induced cell cycle arrest in human HT-29 cells assessed as accumulation at G1 phase at 10 uM after 48 hrs by propidium iodide/RNase staining-based flow cytometric analysis (reference value: 62.1%). It counts as functional.

Each structure is given as a SMILES string.

MAP kinase-activated protein kinase 2 (Homo sapiens), sequence (P49137 whole entry, looked up): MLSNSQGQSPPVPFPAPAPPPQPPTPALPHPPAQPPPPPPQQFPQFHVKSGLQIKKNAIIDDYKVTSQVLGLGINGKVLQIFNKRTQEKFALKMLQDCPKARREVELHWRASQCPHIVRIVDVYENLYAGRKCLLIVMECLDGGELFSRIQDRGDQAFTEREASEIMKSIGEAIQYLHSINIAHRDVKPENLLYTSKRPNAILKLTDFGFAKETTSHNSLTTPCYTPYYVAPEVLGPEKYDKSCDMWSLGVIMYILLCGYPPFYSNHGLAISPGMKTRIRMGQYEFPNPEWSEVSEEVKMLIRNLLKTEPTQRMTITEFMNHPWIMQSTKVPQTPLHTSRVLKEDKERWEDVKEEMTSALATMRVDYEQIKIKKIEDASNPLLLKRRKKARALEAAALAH
Epidermal growth factor receptor (Homo sapiens), sequence (P00533 whole entry): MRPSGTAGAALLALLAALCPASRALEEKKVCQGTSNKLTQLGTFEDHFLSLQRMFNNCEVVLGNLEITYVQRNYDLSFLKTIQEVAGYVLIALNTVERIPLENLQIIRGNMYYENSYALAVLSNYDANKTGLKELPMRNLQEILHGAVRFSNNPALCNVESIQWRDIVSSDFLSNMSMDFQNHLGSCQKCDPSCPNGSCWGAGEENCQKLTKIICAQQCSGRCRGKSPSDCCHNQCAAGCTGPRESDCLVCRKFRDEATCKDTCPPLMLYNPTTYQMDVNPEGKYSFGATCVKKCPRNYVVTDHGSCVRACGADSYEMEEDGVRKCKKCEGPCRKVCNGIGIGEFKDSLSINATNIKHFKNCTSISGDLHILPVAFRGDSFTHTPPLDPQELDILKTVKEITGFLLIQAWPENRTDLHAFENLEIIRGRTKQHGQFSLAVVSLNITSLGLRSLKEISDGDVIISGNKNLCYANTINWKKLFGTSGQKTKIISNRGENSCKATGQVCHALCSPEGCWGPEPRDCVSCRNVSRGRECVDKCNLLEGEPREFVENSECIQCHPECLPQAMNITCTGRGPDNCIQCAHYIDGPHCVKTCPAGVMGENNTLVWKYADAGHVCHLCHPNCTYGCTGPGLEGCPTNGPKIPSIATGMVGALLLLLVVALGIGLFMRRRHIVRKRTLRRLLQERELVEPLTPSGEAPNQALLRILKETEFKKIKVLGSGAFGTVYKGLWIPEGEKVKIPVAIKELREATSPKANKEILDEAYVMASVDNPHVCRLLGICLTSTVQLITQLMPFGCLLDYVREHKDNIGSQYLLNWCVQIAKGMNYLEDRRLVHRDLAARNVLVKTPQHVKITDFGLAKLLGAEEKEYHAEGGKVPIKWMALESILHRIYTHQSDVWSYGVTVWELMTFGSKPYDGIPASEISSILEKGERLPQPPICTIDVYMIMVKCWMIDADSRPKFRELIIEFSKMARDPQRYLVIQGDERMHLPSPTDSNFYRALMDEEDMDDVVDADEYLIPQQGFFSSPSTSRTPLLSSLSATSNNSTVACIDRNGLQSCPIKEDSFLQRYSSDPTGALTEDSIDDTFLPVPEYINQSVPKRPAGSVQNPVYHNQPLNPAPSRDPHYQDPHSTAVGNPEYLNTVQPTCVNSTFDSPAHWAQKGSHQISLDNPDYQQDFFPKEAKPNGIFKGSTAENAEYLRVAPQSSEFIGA
Tyrosine-protein kinase BTK (Homo sapiens), sequence (Q06187 whole entry): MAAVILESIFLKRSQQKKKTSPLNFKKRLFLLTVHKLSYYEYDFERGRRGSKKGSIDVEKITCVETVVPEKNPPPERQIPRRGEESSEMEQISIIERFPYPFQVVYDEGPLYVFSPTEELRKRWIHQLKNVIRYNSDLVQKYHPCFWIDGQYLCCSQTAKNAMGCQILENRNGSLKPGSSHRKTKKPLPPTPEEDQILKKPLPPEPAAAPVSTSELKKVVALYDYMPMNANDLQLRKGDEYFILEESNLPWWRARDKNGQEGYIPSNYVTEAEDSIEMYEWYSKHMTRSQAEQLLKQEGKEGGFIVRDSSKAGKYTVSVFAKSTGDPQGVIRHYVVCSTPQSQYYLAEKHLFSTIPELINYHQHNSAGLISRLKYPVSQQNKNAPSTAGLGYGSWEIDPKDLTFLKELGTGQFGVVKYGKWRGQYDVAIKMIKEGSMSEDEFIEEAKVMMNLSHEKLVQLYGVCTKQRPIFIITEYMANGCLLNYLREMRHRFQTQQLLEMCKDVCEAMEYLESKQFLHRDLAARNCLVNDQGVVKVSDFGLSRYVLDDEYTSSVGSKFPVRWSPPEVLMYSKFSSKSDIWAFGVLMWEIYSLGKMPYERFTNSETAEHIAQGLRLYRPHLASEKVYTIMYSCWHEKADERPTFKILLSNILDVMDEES
Glycogen synthase kinase-3 beta (Homo sapiens), sequence (P49841 whole entry, looked up): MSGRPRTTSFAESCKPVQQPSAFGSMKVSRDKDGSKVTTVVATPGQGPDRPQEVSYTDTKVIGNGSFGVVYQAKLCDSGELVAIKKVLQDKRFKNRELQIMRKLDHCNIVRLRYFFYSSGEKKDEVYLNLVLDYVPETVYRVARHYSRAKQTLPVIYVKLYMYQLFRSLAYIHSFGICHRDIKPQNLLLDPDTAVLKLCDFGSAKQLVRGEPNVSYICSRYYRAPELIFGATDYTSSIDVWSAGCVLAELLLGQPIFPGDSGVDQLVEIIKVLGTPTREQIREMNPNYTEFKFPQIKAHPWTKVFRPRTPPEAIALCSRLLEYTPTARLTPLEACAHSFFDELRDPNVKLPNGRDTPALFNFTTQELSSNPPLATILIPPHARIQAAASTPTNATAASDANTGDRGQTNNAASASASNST

As to `Fc1ccc(Nc2nc(N3CCOCC3)c3nc[nH]c3n2)cc1`, the inhibition in test [1] was 73%; in test [4], 47%; in test [5], 0%; in [6], 23%; in test [8], 18%; in [9] it was 44%. In test [10], this compound showed an inhibition of 35%. Besides, the GI50 in the test with HEK293 was greater than 100000 nM. In addition, the Activity is listed as 60% in the test with HT-29 [2], 25.2% in the test on HT-29 [7] and 13.8% in the test with HT-29 [11]. For the same compound, it took 684 nM to reach half-maximal inhibition in test [3] (IC50).

What is called inhibition is the relative decrease from the control value, in per cent. Higher therefore signals a response far below the control. Usually GI50 stands for the concentration giving 50% growth inhibition. Low values mean more potent growth inhibition, high ones less potent growth inhibition. The term IC50 denotes the midpoint of a concentration-inhibition curve. High values mean a need for much substance, low ones inhibition by little substance.

(Values after ChEMBL document CHEMBL4152229, “Synthesis and biological evaluation of 2,6-disubstituted-9H-purine, 2,4-disubstitued-thieno[3,2-d]pyrimidine and -7H-pyrrolo[2,3-d]pyrimidine analogues as novel CHK1 inhibitors” (Eur J Med Chem, 2018).)
